Entries after “also recorded” stand apart in the source; their conditions may differ.
What was measured:
[1] = test system: cervical cancer cell lines; test: Apoptosis, cellular DNA fragmentation ELISA (FIG. 8); assay type: cell-based, human; settings: eighteen hours; adapalene 1, 5 and 10 μM, tRA 10 μM, ceramide 0.5 mM
Procedure: In this experiment cells were labeled with BrdU for six hours. After labeling, cells were treated with vehicle (DM50), or with 10 μM tRA, 0.5 mM ceramide or doses of adapalene of 1, 5 and 10 μM for eighteen hours. Apoptosis was measured using a cellular DNA fragmentation ELISA kit (available from Boehringer). […] Therein, one unit represents the value obtained from cells grown in the presence of vehicle alone.

[2] = test system: human cervical cancer cell lines (C33A cells and Caski cells); test: Proliferation of human cervical cancer cell lines (Example 33, FIG. 7); assay type: cell-based
Procedure: Another experiment was also conducted to compare the effect of three different retinoid compounds according to the invention, i.e., 6-[3-(1-adamantyl)-4-methoxyphenyl]-2-naphthoic acid, 2-[3-(1-adamantyl)-4-methoxyphenyl]-5-benzimidazole carboxylic acid, and 6-[3-(1-adamantyl)-4,5-methylenedioxyphenyl]-2-naphthoic acid, a control (DMSO), and a control retinoid (all-trans retinoic acid) on the proliferation of several human cervical cancer cell lines (C33A cells and Caski cells).

[3] = test system: Cervical Intraepithelial Neoplasia Level II or III; test: Phase I/II clinical study, aqueous adapalene gel with cervical cap and collagen sponge; assay type: in vivo, human; settings: for CIN Resolved / Improved to CIN I / Overall Response / Overall “cure” / Improved from CIN III to CIN II: Table II
From the text: Level I corresponds to mild cervical dysplasia, II to moderate dysplasia, and III to severe dysplasia, and carcinoma in situ.
A clinical study was designed and approved where an aqueous adapalene gel was delivered with a cervical cap and a collagen sponge in patients with advanced cervical dysplasia (CIN II and CIN III). Inclusion criteria for enrollment included a biopsy proving diagnosis of CIN II or CIN III. Forty-nine patients received the drug and completed the study.

cancer cells = test: List of active compounds: types of cancers and precancers active against; assay type: cell-based
From the text: As discussed, the adamantyl retinoid derivatives according to the invention which induce apoptosis are useful for treating many different types of cancers.

[4] = test system: human cervical cancer cell lines Caski and C33A; test: Proliferation assay on cervical cancer cell lines (Example 32, FIG. 6); assay type: cell-based
Procedure: Two human cervical cancer cell lines, the Caski and C33A (which contains integrated human papillomavirus sequences) were treated with adapalene at concentrations of 1, 2 and 10 μM for 24, 48 and 96 hours or with tretinoin as a control. Afterward, human cervical cancer cells, which had been treated for […] or 48 hours, were then washed and incubated in a medium lacking adapalene.
After a total incubation time of 96 hours, a proliferation assay was performed to assess the extent of inhibition of proliferation or cell killing. […] The EC50 (concentration of adapalene that provides for 50% inhibition of cell proliferation) for the tested human cervical cancer cell lines was estimated to be approximately 5 μM.

[5] = test system: various human cancer cell lines; test: Anti-cancer activity against human cancer cell lines over a concentration range (FIGS. 2-4); assay type: cell-based; settings: retinoid concentrations 10^−9 M to 10^−5 M
From the text: FIG. 2 compares the activity of selected adamantyl retinoids according to the invention and all-trans-retinoic acid against a human non-small lung carcinoma cell line.
FIG. 3 compares the activity of selected adamantyl retinoids according to the invention and all-trans-retinoic acid against human prostate adenocarcinoma, human metastatic prostate adenocarcinoma, and human prostate carcinoma cell lines.
FIG. 4 compares the activity of selected adamantyl retinoids according to the invention and all-trans-retinoic acid against a human liver cancer cell line.

[6] = length of treatment 4 days (n = 2), patients (percent)
[7] = length of treatment 8 days (n = 23), patients (percent)
[8] = length of treatment 14 days (n = 24), patients (percent)

Compound: Ceramide
- induction of apoptosis [1]: effectively induced apoptosis

Compound: COc1ccc(-c2ccc3cc(C(=O)O)ccc3c2)cc1C12CC3CC(CC(C3)C1)C2 [Compound 1, 6-[3-(1-adamantyl)-4-methoxyphenyl]-2-naphthoic acid]
- effect on proliferation of human cervical cell lines [2]: strong inhibitory effect
- Response: Complete ([3]; 4 days, CIN II (n = 0)): 0(0.0)
- Response: Overall ([3]; 4 days, CIN II (n = 0)): 0(0.0)
- Response: Partial ([3]; 4 days, CIN II (n = 0)): 0(0.0)
- Response: Progression ([3]; 4 days, CIN II (n = 0)): 0(0.0)
- Response: Stable ([3]; 4 days, CIN II (n = 0)): 0(0.0)
- Response: Complete ([3]; 4 days, CIN III/CIS (n = 2)): 0(0.0)
- Response: Overall ([3]; 4 days, CIN III/CIS (n = 2)): 0(0.0)
- Response: Partial ([3]; 4 days, CIN III/CIS (n = 2)): 0(0.0)
- Response: Progression ([3]; 4 days, CIN III/CIS (n = 2)): 0(0.0)
- Response: Stable ([3]; 4 days, CIN III/CIS (n = 2)): 2(100.0)
- Response: Complete ([3]; 8 days, CIN II (n = 12)): 4(33.3)
- Response: Overall ([3]; 8 days, CIN II (n = 12)): 8(66.7)
- Response: Partial ([3]; 8 days, CIN II (n = 12)): 4(33.3)
- Response: Progression ([3]; 8 days, CIN II (n = 12)): 0(0.0)
- Response: Stable ([3]; 8 days, CIN II (n = 12)): 4(33.3)
- Response: Complete ([3]; 8 days, CIN III/CIS (n = 11)): 3(27.3)
- Response: Overall ([3]; 8 days, CIN III/CIS (n = 11)): 6(54.5)
- Response: Partial ([3]; 8 days, CIN III/CIS (n = 11)): 3(27.3)
- Response: Progression ([3]; 8 days, CIN III/CIS (n = 11)): 0(0.0)
- Response: Stable ([3]; 8 days, CIN III/CIS (n = 11)): 5(45.4)
- Response: Complete ([3]; 14 days, CIN II (n = 14)): 3(21.4)
- Response: Overall ([3]; 14 days, CIN II (n = 14)): 6(42.9)
- Response: Partial ([3]; 14 days, CIN II (n = 14)): 3(21.4)
- Response: Progression ([3]; 14 days, CIN II (n = 14)): 0(0.0)
- Response: Stable ([3]; 14 days, CIN II (n = 14)): 8(57.1)
- Response: Complete ([3]; 14 days, CIN III/CIS (n = 10)): 2(20.0)
- Response: Overall ([3]; 14 days, CIN III/CIS (n = 10)): 3(30.0)
- Response: Partial ([3]; 14 days, CIN III/CIS (n = 10)): 1(10.0)
- Response: Progression ([3]; 14 days, CIN III/CIS (n = 10)): 0(0.0)
- Response: Stable ([3]; 14 days, CIN III/CIS (n = 10)): 7(70.0)
- CIN Resolved ([3]; CIN II, N = 27): 30%
- Improved to CIN I ([3]; CIN II, N = 27): 22%
- Overall Response ([3]; CIN II, N = 27): 52%
- Overall “cure” ([3]; CIN II, N = 27): 52%
- CIN Resolved ([3]; CIN III, N = 21): 24%
- Improved from CIN III to CIN II ([3]; CIN III, N = 21): 29%
- Improved to CIN I ([3]; CIN III, N = 21): 19%
- Overall Response ([3]; CIN III, N = 21): 72%
- Overall “cure” ([3]; CIN III, N = 21): 43%
- CIN Resolved ([3]; Total, N = 48): 27%
- Improved from CIN III to CIN II ([3]; Total, N = 48): 13%
- Improved to CIN I ([3]; Total, N = 48): 21%
- Overall Response ([3]; Total, N = 48): 61%
- Overall “cure” ([3]; Total, N = 48): 48%
- response rates versus length of treatment ([3]; eight to fourteen days): did not increase
- patients with complete response ([3]; human, in vivo): Twelve
- patients with partial response (regressed to CIN I) ([3]; human, in vivo): eleven
- patients with stable disease with no progression ([3]; human, in vivo): Twenty-six
- Response: Complete [3, 6]: 0(0.0)
- Response: Overall [3, 6]: 0(0.0)
- Response: Partial [3, 6]: 0(0.0)
- Response: Progression [3, 6]: 0(0.0)
- Response: Stable [3, 6]: 2(100.0)
- Response: Complete [3, 7]: 7(30.4)
- Response: Overall [3, 7]: 14(60.8)
- Response: Partial [3, 7]: 7(30.4)
- Response: Progression [3, 7]: 0(0.0)
- Response: Stable [3, 7]: 9(39.1)
- Response: Complete [3, 8]: 5(20.8)
- Response: Overall [3, 8]: 9(37.5)
- Response: Partial [3, 8]: 4(16.7)
- Response: Progression [3, 8]: 0(0.0)
- Response: Stable [3, 8]: 15(62.5)
- overall response rate (partial plus complete) ([3]; ninety days after treatment, 47 patients, eight day or fourteen day treatment): 48.7%
- adverse effects ([3]; no patient withdrawn because of an adverse event): all averse effects reported were mild
- highest overall response rate ([3]; patients treated for eight days): 60.8%
- response ([3]; two patients, four day treatment): no response
- induction of apoptosis [1]: comparable to that of cells incubated with ceramide
- Types of Cancers and Precancers Active Against (cancer cells): brain, cervical (including, e.g.,; also recorded: cervical intraepithelial neoplasia; also recorded: I, II, III), head and neck, leu-; also recorded: kemia, lymphoma, prostate, skin
- inhibition of proliferation of cervical cancer cell lines ([4]; 1, 2 and 10 μM for 24, 48 and 96 hours): inhibit the proliferation of cervical cancer cell lines in a dose-dependent manner
- EC50 ([4]; Homo sapiens, total incubation time 96 hours, estimated, read-out: EC50 (concentration that provides for 50% inhibition of cell proliferation)): ~5 µM
- effect of incubation longer than 24 hours on proliferation ([4]; increase between 48 and 96 hours not statistically significant (p>0.05)): only a marginal effect on proliferation
- concentration at which maximum inhibition of cell proliferation occurred ([4]; tested at 1, 2 and 10 μM): 10 µM

Compound: COc1ccc(-c2ccc3cc(C(=O)NCCN)ccc3c2)cc1C12CC3CC(CC(C3)C1)C2 [Compound 45, N-(2-aminoethyl)-{6-[3-(1-adamantyl)-4-methoxyphenyl]-2-naphthalenecarboxamide]]
- Types of Cancers and Precancers Active Against (cancer cells): bladder, kidney, prostate,; also recorded: leukemia, breast, lung, neuro-; also recorded: blastoma, hepatoma, pancreas,; also recorded: cervix skin

Compound: O=C(c1ccc2cc(-c3cc4c(c(C56CC7CC(CC(C7)C5)C6)c3)OCO4)ccc2c1)N1CCNCC1 [Compound 46, N-{6-[3-(1-adamantyl)-4,5-methylenedioxy]-2-naphthalenecarboxoyl}piperazide]
- Types of Cancers and Precancers Active Against (cancer cells): prostate, neuroblastoma,; also recorded: hepatoma

Compound: CC(=O)OCc1ccc(-c2ccc3cc(C(=O)O)ccc3c2)cc1C12CC3CC(CC(C3)C1)C2 [Compound 5, 6-[3-(1-adamantyl)-4-acetoxymethylphenyl]-2-naphthoic acid]
- Types of Cancers and Precancers Active Against (cancer cells): head and neck, leukemia, lung,; also recorded: lymphoma, myeloma, pancre-; also recorded: atic, skin

Compound: COc1ccc(-c2nc3ccc(C(=O)O)cc3[nH]2)cc1C12CC3CC(CC(C3)C1)C2 [Compound 2, 2-[3-(1-adamantyl)-4-methoxyphenyl]-5-benzimidazole carboxylic acid]
- effect on proliferation of human cervical cell lines [2]: strong inhibitory effect
- anti-cancer activity [5]: significant anti-cancer activity
- Types of Cancers and Precancers Active Against (cancer cells): brain, colon, leukemia, lung,; also recorded: cervical (including, e.g.,; also recorded: cervical intraepithelial neoplasia; also recorded: I, II, III), lymphoma, myeloma,; also recorded: ovarian, pancreatic, prostate,; also recorded: skin, liver

Compound: COc1cc(C)c(-c2ccc3cc(C(=O)O)ccc3c2)cc1C12CC3CC(CC(C3)C1)C2 [Compound 13, 6-[3-(1-adamantyl)-4-methoxy-6-methylphenyl]-2-naphthoic acid]
- Types of Cancers and Precancers Active Against (cancer cells): brain, head and neck, leukemia,; also recorded: pancreatic

Compound: COc1cc(-c2ccc3cc(C(=O)O)ccc3c2)cc(C23CC4CC(CC(C4)C2)C3)c1O [Compound 4, 6-[3-(1-adamantyl)-4-hydroxy-5-methoxyphenyl]-2-naphthoic acid]
- anti-cancer activity [5]: significant anti-cancer activity
- Types of Cancers and Precancers Active Against (cancer cells): brain, breast, kidney, lung,; also recorded: leukemia, lymphoma, myeloma,; also recorded: ovarian, pancreatic, prostate,; also recorded: skin, liver

Compound: COC(=O)c1ccc2cc(-c3ccc(O)c(C45CC6CC(CC(C6)C4)C5)c3)ccc2c1 [Compound 17, 6-[3-(1-adamantyl)-4-hydroxyphenyl]-2-naphthoic acid methyl ester]
- Types of Cancers and Precancers Active Against (cancer cells): leukemia

Compound: OCc1ccc2cc(-c3ccc(O)c(C45CC6CC(CC(C6)C4)C5)c3)ccc2c1 [Compound 14, 6-[3-(1-adamantyl)-4-hydroxyphenyl]-2-hydroxymethylnaphthalene]
- Types of Cancers and Precancers Active Against (cancer cells): bladder, kidney, skin

Compound: O=C(O)c1ccc2cc(-c3ccc(CO)c(C45CC6CC(CC(C6)C4)C5)c3)ccc2c1 [Compound 3, 6-[3-(1-adamantyl)-4-hydroxymethylphenyl]-2-naphthoic acid]
- anti-cancer activity [5]: significant anti-cancer activity
- Types of Cancers and Precancers Active Against (cancer cells): bladder, brain, breast, cervical,; also recorded: colon, head and neck, leukemia,; also recorded: kidney, lung, myeloma, ovarian,; also recorded: pancreatic, prostate, skin, liver

Compound: COc1ccc(C(=N)Nc2ccc(C(=O)O)cc2)cc1C12CC3CC(CC(C3)C1)C2 [Compound 31, 3-(1-adamantyl)-4-methoxy-N-(4-carboxyphenyl)benzamidine]
- Types of Cancers and Precancers Active Against (cancer cells): leukemia

Compound: COc1ccc(C(=O)C#Cc2ccc(C(=O)O)cc2)cc1C12CC3CC(CC(C3)C1)C2 [Compound 8, 4-{3-oxo-3-[3-(1-adamantyl)-4-methoxyphenyl]-1-propynyl}benzoic acid]
- Types of Cancers and Precancers Active Against (cancer cells): brain, breast, leukemia, lung,; also recorded: lymphoma, skin, liver

Compound: NCCNC(=O)c1ccc2cc(-c3cc4c(c(C56CC7CC(CC(C7)C5)C6)c3)OCO4)ccc2c1 [Compound 48, N-(2-aminoethyl)-{6-[3-(1-adamantyl)-4,5-methylenedioxyphenyl]-2-naphthalenecarboxamide}]
- Types of Cancers and Precancers Active Against (cancer cells): breast, hepatoma, skin

Source: patent US6462064B1, “Apoptosis inducing adamantyl derivatives and their usage as anti-cancer agents, especially for cervical cancers and dysplasias” (Galderma Research & Development S.N.C., priority 1996, dated 2002)
